# Results reported in PubChem BioAssay (NCI).
#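 GI50 marks 50% less growth. At the TGI there is no net growth.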
# Assays:
# Assay in all cases: DTP human tumour cell line panel, 384-well format
# HS 578T breast = test system: HS 578T breast
# OVCAR-5 ovarian = test system: OVCAR-5 ovarian
# SNB-75 CNS = test system: SNB-75 CNS
# MDA-MB-468 breast = test system: MDA-MB-468 breast
# PC-3 prostate = test system: PC-3 prostate
# EKVX NSCLC = test system: EKVX NSCLC
# ACHN renal = test system: ACHN renal
# RXF 393 renal = test system: RXF 393 renal
# SN12C renal = test system: SN12C renal
# HCC-2998 colon = test system: HCC-2998 colon
# SNB-19 CNS = test system: SNB-19 CNS
# SW-620 colon = test system: SW-620 colon
# IGROV1 ovarian = test system: IGROV1 ovarian
# MCF7 breast = test system: MCF7 breast
# A498 renal = test system: A498 renal
# NCI-H226 lung = test system: NCI-H226 lung
# UACC-62 melanoma = test system: UACC-62 melanoma
# SK-MEL-5 melanoma = test system: SK-MEL-5 melanoma
# MDA-MB-435 melanoma = test system: MDA-MB-435 melanoma
# DU-145 prostate = test system: DU-145 prostate
# MALME-3M melanoma = test system: MALME-3M melanoma
# RPMI-8226 leukemia = test system: RPMI-8226 leukemia
# NCI-H322M lung = test system: NCI-H322M lung
# UACC-257 melanoma = test system: UACC-257 melanoma
# NCI-H23 lung = test system: NCI-H23 lung
# SF-295 CNS = test system: SF-295 CNS
# 786-0 renal = test system: 786-0 renal
# COLO 205 colon = test system: COLO 205 colon
# M14 melanoma = test system: M14 melanoma
# HCT-15 colon = test system: HCT-15 colon
# SF-539 CNS = test system: SF-539 CNS
# CAKI-1 renal = test system: CAKI-1 renal
# UO-31 renal = test system: UO-31 renal
# HL-60(TB) leukemia = test system: HL-60(TB) leukemia
# CCRF-CEM leukemia = test system: CCRF-CEM leukemia
# SK-MEL-28 melanoma = test system: SK-MEL-28 melanoma
# SK-OV-3 ovarian = test system: SK-OV-3 ovarian
# A549 NSCLC = test system: A549 NSCLC
# LOX IMVI melanoma = test system: LOX IMVI melanoma
# NCI-H522 lung = test system: NCI-H522 lung
# NCI-H460 NSCLC = test system: NCI-H460 NSCLC
# KM12 colon = test system: KM12 colon
# U251 glioblastoma = test system: U251 glioblastoma
# TK-10 renal = test system: TK-10 renal
# NCI/ADR-RES ovarian = test system: NCI/ADR-RES ovarian
# HOP-62 NSCLC = test system: HOP-62 NSCLC
# K-562 leukemia = test system: K-562 leukemia
# BT-549 breast = test system: BT-549 breast
# T-47D breast = test system: T-47D breast
# SF-268 CNS = test system: SF-268 CNS
# OVCAR-3 ovarian = test system: OVCAR-3 ovarian
# HT29 colon = test system: HT29 colon
# OVCAR-4 ovarian = test system: OVCAR-4 ovarian
# OVCAR-8 ovarian = test system: OVCAR-8 ovarian
smiles,measurement,setting,value
CCS(=O)(=O)c1cccc(-c2cc(C(=O)NC3CCN(C)CC3)c(C)c3[nH]c4ncc(C)cc4c23)c1,GI50,HS 578T breast,58.1 nM
same,TGI,HS 578T breast,216 nM
same,GI50,OVCAR-5 ovarian,185 nM
same,TGI,OVCAR-5 ovarian,827 nM
same,GI50,SNB-75 CNS,101 nM
same,TGI,SNB-75 CNS,226 nM
same,GI50,MDA-MB-468 breast,17.9 nM
same,TGI,MDA-MB-468 breast,88.6 nM
same,GI50,PC-3 prostate,219 nM
same,TGI,PC-3 prostate,2710 nM
same,GI50,EKVX NSCLC,270 nM
same,TGI,EKVX NSCLC,1930 nM
same,GI50,ACHN renal,2370 nM
same,TGI,ACHN renal,13200 nM
same,GI50,RXF 393 renal,112 nM
same,TGI,RXF 393 renal,384 nM
same,GI50,SN12C renal,51.5 nM
same,TGI,SN12C renal,267 nM
same,GI50,HCC-2998 colon,168 nM
same,TGI,HCC-2998 colon,1240 nM
same,GI50,SNB-19 CNS,192 nM
same,TGI,SNB-19 CNS,1390 nM
same,GI50,SW-620 colon,181 nM
same,TGI,SW-620 colon,1250 nM
same,GI50,IGROV1 ovarian,40.8 nM
same,TGI,IGROV1 ovarian,230 nM
same,GI50,MCF7 breast,12.6 nM
same,TGI,MCF7 breast,2130 nM
same,GI50,A498 renal,1400 nM
same,TGI,A498 renal,5500 nM
same,GI50,NCI-H226 lung,39.2 nM
same,TGI,NCI-H226 lung,441 nM
same,GI50,UACC-62 melanoma,158 nM
same,TGI,UACC-62 melanoma,1120 nM
same,GI50,SK-MEL-5 melanoma,264 nM
same,TGI,SK-MEL-5 melanoma,1680 nM
same,GI50,MDA-MB-435 melanoma,366 nM
same,TGI,MDA-MB-435 melanoma,1900 nM
same,GI50,DU-145 prostate,343 nM
same,TGI,DU-145 prostate,4340 nM
same,GI50,MALME-3M melanoma,240 nM
same,TGI,MALME-3M melanoma,1460 nM
same,GI50,RPMI-8226 leukemia,49.7 nM
same,TGI,RPMI-8226 leukemia,226 nM
same,GI50,NCI-H322M lung,541 nM
same,TGI,NCI-H322M lung,2440 nM
same,GI50,UACC-257 melanoma,139 nM
same,TGI,UACC-257 melanoma,935 nM
same,GI50,NCI-H23 lung,66.9 nM
same,TGI,NCI-H23 lung,343 nM
same,GI50,SF-295 CNS,399 nM
same,TGI,SF-295 CNS,3610 nM
same,GI50,786-0 renal,1000 nM
same,TGI,786-0 renal,2460 nM
same,GI50,COLO 205 colon,18.3 nM
same,TGI,COLO 205 colon,98.1 nM
same,GI50,M14 melanoma,437 nM
same,TGI,M14 melanoma,2040 nM
same,GI50,HCT-15 colon,3960 nM
same,TGI,HCT-15 colon,19800 nM
same,GI50,SF-539 CNS,59 nM
same,TGI,SF-539 CNS,233 nM
same,GI50,CAKI-1 renal,328 nM
same,TGI,CAKI-1 renal,5340 nM
same,GI50,UO-31 renal,5480 nM
same,TGI,UO-31 renal,19100 nM
same,GI50,HL-60(TB) leukemia,31.8 nM
same,TGI,HL-60(TB) leukemia,126 nM
same,TGI,CCRF-CEM leukemia,12.1 nM
same,GI50,SK-MEL-28 melanoma,279 nM
same,TGI,SK-MEL-28 melanoma,1300 nM
same,GI50,SK-OV-3 ovarian,135 nM
same,TGI,SK-OV-3 ovarian,869 nM
same,GI50,A549 NSCLC,58 nM
same,TGI,A549 NSCLC,1200 nM
same,GI50,LOX IMVI melanoma,84.9 nM
same,TGI,LOX IMVI melanoma,229 nM
same,GI50,NCI-H522 lung,19.4 nM
same,TGI,NCI-H522 lung,126 nM
same,GI50,NCI-H460 NSCLC,36.2 nM
same,TGI,NCI-H460 NSCLC,1080 nM
same,GI50,KM12 colon,24.2 nM
same,TGI,KM12 colon,1110 nM
same,GI50,U251 glioblastoma,202 nM
same,TGI,U251 glioblastoma,902 nM
same,GI50,TK-10 renal,1740 nM
same,TGI,TK-10 renal,5520 nM
same,GI50,NCI/ADR-RES ovarian,> 100000 nM
same,TGI,NCI/ADR-RES ovarian,> 100000 nM
same,GI50,HOP-62 NSCLC,161 nM
same,TGI,HOP-62 NSCLC,1290 nM
same,GI50,K-562 leukemia,32.2 nM
same,TGI,K-562 leukemia,761 nM
same,GI50,BT-549 breast,144 nM
same,TGI,BT-549 breast,326 nM
same,GI50,T-47D breast,59.2 nM
same,TGI,T-47D breast,270 nM
same,GI50,SF-268 CNS,17.8 nM
same,TGI,SF-268 CNS,91.1 nM
same,GI50,OVCAR-3 ovarian,103 nM
same,TGI,OVCAR-3 ovarian,298 nM
same,GI50,HT29 colon,215 nM
same,TGI,HT29 colon,10500 nM
same,GI50,OVCAR-4 ovarian,953 nM
same,TGI,OVCAR-4 ovarian,5040 nM
same,GI50,OVCAR-8 ovarian,309 nM
same,TGI,OVCAR-8 ovarian,1490 nM
